Where two headings read alike, the source gives them in different places.
Experiments:
MDCK = assay: RT-CES cell proliferation inhibition, MDCK; assay type: cell-based, Monkey; conditions: Canis lupus familiaris
Excerpt: (§1) The biological activity of compounds disclosed herein was monitored and profiled using the Real-Time Cell Electronic Sensing (RT-CES®) system from ACEA Biosciences, Inc. The RT-CES system utilizes cell-substrate impedance technology to monitor cellular behavior inside tissue culture wells in a microtiter plate format. The technology features in the integration of molecular and cell biology with microelectronics and is based on the electronic detection of biological assay process. The details of this cell electronic sensing technology and associated devices, systems and methods of use as described in U.S. provisional application No. 60/379,749, filed on Jul. […]
(§2) For measurement of cell-substrate or cell-electrode impedance using RT-CES technology, microelectrodes having appropriate geometries are fabricated onto the bottom surfaces of microtiter plate or similar device, facing into the wells. […] When there are changes to the biological status of the cells analogue electronic readout signals are measured automatically and in real time, and are converted to digital signals for processing and for analysis. In a RT-CES system, a cell index (arbitrary representation of change in impedance) is automatically derived and provided based on measured electrode impedance values. […]
(§3) To quantify cell status based on the measured cell-electrode impedance, a parameter termed Cell Index is derived. […]

Bcap37 = assay: RT-CES cell proliferation inhibition, Bcap37; assay type: cell-based; conditions: Homo sapiens
Excerpt: as §1, §2, §3

S180 sarcoma = assay: Anti-tumor activity against S180 bearing mouse model; assay type: in vivo, ICR mice; conditions: for Inhibition Rate (%) / Tumor Weight: qd for 9 days; for Body Weight (g) Start: mouse, in vivo
Procedure: ACEA100160 (2-(4-ethoxyphenyl)amino-4-(6-methylimidazo[1,2-a]pyrimidin-3-yl)thiazole) and ACEA 100162 (2-(4-ethoxyphenyl)amino-4-(6-methylimidazo[2,1-b]thiazol-5-yl)thiazole) are prepared at concentration of 8 mg/ml in solution containing 20% HP-beta-CD dextrose (D5W). The solvent HP-beta-CD solution is used as a vehicle negative control.
ICR mice, male, 21.4±1.5 g
S180 sarcoma: murine cancer cell line S180.
The malignant ascites model of ICR mouse was induced by S180 cells.
Under a sterilized condition, sacrifice the ICR murine S180 bearing mice, take out of the ascites and dilute with NS to certain cell numbers. Inject 0.2 ml cell suspension (10^6 cells) subcutaneously into the left flank on ICR mice. On the first treatment day before iv or ip, implanted animals are randomly divided into ten groups as following. The drugs were administrated in the schedule of Table 11 respectively. The solvent HP-beta-CD solution is used as a vehicle negative control. Observe clinical signs at least daily.
Tumor weight was recorded. The tumor inhibitory rate was calculated as follows: inhibitory rate=1-Wt/W0, where Wt is the average weight of each drug treatment group and W0 is the average weight of negative control group. Results are given as mean±SD values from n animals. Comparisons between groups were made with Student's two-tailed t test and a P<0.05 was considered significant.

Br.CCOc1ccc(Nc2nc(-c3c(C)nc4sccn34)cs2)cc1 [Compound 27, 2-(4-ethoxyphenyl)amino-4-(6-methylimidazo[2,1-b]thiazol-5-yl)thiazole]
IC50 (MDCK; 24 hrs, read-out: IC50 (24 hr)): 930 nM | IC50 (MDCK; 48 hrs, read-out: IC50 (48 hr)): 1870 nM | IC50 (Bcap37; Bcap37, 24 hrs, read-out: IC50 (24 hr)): 27.3 nM | IC50 (Bcap37; Bcap37, 48 hrs, read-out: IC50 (48 hr)): 26 nM | Inhibition Rate (%) (S180 sarcoma; S180, IP, 40 mg/kg): 59.3% | Tumor Weight (S180 sarcoma; S180, IP, 40 mg/kg): 0.61 ± 0.21 g | Inhibition Rate (%) (S180 sarcoma; S180, IP, 80 mg/kg): 77.2% | Tumor Weight (S180 sarcoma; S180, IP, 80 mg/kg): 0.34 ± 0.16 g | Inhibition Rate (%) (S180 sarcoma; S180, IV, 40 mg/kg): 60.7% | Tumor Weight (S180 sarcoma; S180, IV, 40 mg/kg): 0.59 ± 0.24 g | Body Weight (g) Start (S180 sarcoma; ip, 40 mg/kg): 20.6 ± 0.4 g | Body Weight (g) Start (S180 sarcoma; ip, 80 mg/kg): 21.8 ± 1.5 g | Body Weight (g) Start (S180 sarcoma; iv, 40 mg/kg): 21.0 ± 0.4 g

— US8252822B2, “Heterocyclic compounds and uses as anticancer agents” (Acea Biosciences, Inc., priority 2007, dated 2012)
